# The source made the active and inactive calls. The calls are words filed in the database; no cut-off is given here.
# Assays:
# [1] = Toxicity in female Beagle dog assessed as change in blood pressure at 0.75 to 2.5 mg/kg, IG administered once daily for 4 weeks and measured after 4 weeks; assay type: organism-based, Canis lupus familiaris; conditions: in vivo, po, 1344 h, dose 0.75-2.5 mg/kg, time 8 weeks
# [2] = Cardiotoxicity in conscious cynomolgus monkey assessed as waveform abnormalities in leas-II ECG at 3.125 to 12.5 mg/kg, IG measured within 24 hrs by EcgAUTO analysis; assay type: toxicity, organism-based, Macaca fascicularis; conditions: in vivo, po, dose 3.125-12.5 mg/kg
# [3] = Toxicity in male Sprague-Dawley rat assessed as piloerection at 7.5 mg/kg, po administered once daily for 4 weeks; assay type: organism-based; conditions: in vivo, 672 h
# [4] = Toxicity in Sprague-Dawley rat assessed as good general health at 2.5 to 7.5 mg/kg, po administered once daily for 4 weeks; assay type: organism-based; conditions: in vivo, 672 h, dose 2.5-7.5 mg/kg
# [5] = Toxicity in female Sprague-Dawley rat assessed as corneal epithelial degeneration at 2.5 to 7.5 mg/kg, po administered once daily for 4 weeks and measured after 4 weeks; assay type: organism-based; conditions: in vivo, 1344 h, dose 2.5-7.5 mg/kg, time 8 weeks
# [6] = tested on: 5-hydroxytryptamine receptor 2C (Homo sapiens), P28335 [W324A]; assay: Agonist activity at 5HT2CR W324A mutant (unknown origin) expressed in HEK293 cells assessed as IP1 level by HTRF IP1 competitive binding assay; assay type: cell-based
# [7] = molecular target: Histamine H1 receptor (Homo sapiens) (UniProt P35367); assay: Binding affinity to H1 receptor (unknown origin) at 10 uM by radioligand binding assay relative to control
# [8] = Cardiotoxicity in conscious cynomolgus monkey assessed as change in systolic pressure at 3.125 to 12.5 mg/kg, IG measured within 25 hrs; assay type: toxicity, organism-based, Macaca fascicularis; conditions: in vivo, po, dose 3.125-12.5 mg/kg
# [9] = molecular target: 5-hydroxytryptamine receptor 2A (Homo sapiens) (UniProt P28223); assay: Binding affinity to 5-HT2A (unknown origin) at 10 uM by radioligand binding assay relative to control
# [10] = Toxicity in female Sprague-Dawley rat assessed as irritability at 7.5 mg/kg, po administered once daily for 4 weeks and measured after 4 weeks; assay type: organism-based; conditions: in vivo, 1344 h, time 8 weeks
# [11] = Toxicity in male Beagle dog assessed as change in bone marrow smears at 0.75 to 2.5 mg/kg, IG administered once daily for 4 weeks and measured after 4 weeks; assay type: organism-based, Canis lupus familiaris; conditions: in vivo, po, 1344 h, dose 0.75-2.5 mg/kg, time 8 weeks
# [12] = molecular target: Vasopressin V1a receptor (Homo sapiens) (UniProt P37288); assay: Binding affinity to V1a receptor (unknown origin) at 10 uM by radioligand binding assay relative to control
# [13] = molecular target: L-type calcium channel (Homo sapiens, UniProt O60840+Q01668+Q13698+Q13936); assay: Binding affinity to L-type calcium channel (unknown origin) at 10 uM by radioligand binding assay relative to control; assay type: protein assay; conditions: read-out: Activity
# [14] = Toxicity in female Sprague-Dawley rat assessed as slow respiration at 7.5 mg/kg, po administered once daily for 4 weeks; assay type: organism-based; conditions: in vivo, 672 h
# [15] = tested on: Mus musculus; assay: Antipsychotic activity in amyloid beta(1 to 42) induced cognitive impairment in mouse model assessed as reduction in exploration time at 1 mg/kg, IG measured after 24 hrs by novel object recognition test; assay type: functional, organism-based
# [16] = tested on: Mus musculus; assay: Antipsychotic activity against MK-801 induced hyperlocomotion in male C57BL/6J mouse model at 3 mg/kg, IG […] followed by compound addition and measured after 30 mins by open field test; assay type: functional, organism-based
# [17] = Toxicity in female Beagle dog assessed as somnolence at 2.5 mg/kg, IG administered once daily for 4 weeks and measured after 4 weeks; assay type: organism-based, Canis lupus familiaris; conditions: in vivo, po, 1344 h, time 8 weeks
# [18] = molecular target: 5-hydroxytryptamine receptor 1B (Homo sapiens) (UniProt P28222); assay: Binding affinity to 5-HT1B (unknown origin) at 10 uM by radioligand binding assay relative to control
# [19] = molecular target: 5-hydroxytryptamine receptor 3A (Homo sapiens) (UniProt P46098); assay: Binding affinity to 5-HT3 (unknown origin) at 10 uM by radioligand binding assay relative to control
# [20] = tested on: 5-hydroxytryptamine receptor 2C (Homo sapiens), P28335 [D134A]; assay: Agonist activity at 5HT2CR D134A mutant (unknown origin) expressed in HEK293 cells assessed as IP1 level by HTRF IP1 competitive binding assay; assay type: cell-based
# [21] = Toxicity in female Sprague-Dawley rat assessed as change in organ weight at 2.5 to 7.5 mg/kg, po administered once daily for 4 weeks and measured after 4 weeks; assay type: organism-based; conditions: in vivo, 1344 h, dose 2.5-7.5 mg/kg, time 8 weeks
# [22] = Cardiotoxicity in conscious cynomolgus monkey assessed as good general health at 3.125 to 12.5 mg/kg, IG; assay type: toxicity, organism-based, Macaca fascicularis; conditions: in vivo, po, dose 3.125-12.5 mg/kg
# [23] = Toxicity in female Sprague-Dawley rat assessed as change in hematology at 2.5 to 7.5 mg/kg, po administered once daily for 4 weeks and measured after 4 weeks; assay type: organism-based; conditions: in vivo, 1344 h, dose 2.5-7.5 mg/kg, time 8 weeks
# [24] = Toxicity in male Sprague-Dawley rat assessed as irritability at 2.5 mg/kg, po administered once daily for 4 weeks and measured after 4 weeks; assay type: organism-based; conditions: in vivo, 1344 h, time 8 weeks
# [25] = Plasma protein binding in dog assessed as unbound fraction by LC-MS/MS analysis; assay type: ADME, cell-free, Canis lupus familiaris
# [26] = molecular target: Sodium-dependent dopamine transporter (Homo sapiens) (UniProt Q01959); assay: Binding affinity to DAT receptor (unknown origin) at 10 uM by radioligand binding assay relative to control
# [27] = Toxicity in male Sprague-Dawley rat assessed as irritability at 7.5 mg/kg, po administered once daily for 4 weeks; assay type: organism-based; conditions: in vivo, 672 h
# [28] = molecular target: Beta-2 adrenergic receptor (Homo sapiens) (UniProt P07550); assay: Binding affinity to beta 2 receptor (unknown origin) at 10 uM by radioligand binding assay relative to control
# [29] = Toxicity in female Beagle dog assessed as change in gross necropsy at 0.75 to 2.5 mg/kg, IG administered once daily for 4 weeks and measured after 4 weeks; assay type: organism-based, Canis lupus familiaris; conditions: in vivo, po, 1344 h, dose 0.75-2.5 mg/kg, time 8 weeks
# [30] = molecular target: T1, 5-hydroxytryptamine receptor 2C (Homo sapiens, UniProt P28335); assay: Agonist activity at recombinant human 5-HT2CR expressed in HEK293 cells incubated for 2 hrs by FLIPR calcium assay; assay type: functional, cell-based
# T1 sequence (P28335 whole entry): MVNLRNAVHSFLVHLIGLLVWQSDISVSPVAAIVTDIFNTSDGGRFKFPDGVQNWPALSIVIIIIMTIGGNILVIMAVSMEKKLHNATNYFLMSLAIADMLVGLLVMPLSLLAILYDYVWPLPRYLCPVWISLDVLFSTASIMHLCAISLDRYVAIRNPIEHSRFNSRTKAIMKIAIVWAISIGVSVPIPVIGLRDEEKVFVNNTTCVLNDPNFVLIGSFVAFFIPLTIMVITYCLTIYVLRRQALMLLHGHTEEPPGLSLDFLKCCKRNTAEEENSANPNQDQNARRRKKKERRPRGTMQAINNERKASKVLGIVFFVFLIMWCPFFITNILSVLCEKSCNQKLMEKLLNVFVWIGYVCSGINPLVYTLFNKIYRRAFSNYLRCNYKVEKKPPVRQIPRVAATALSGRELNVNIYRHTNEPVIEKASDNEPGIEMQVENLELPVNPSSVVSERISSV
# [31] = Toxicity in male Sprague-Dawley rat assessed as change in prolactin level at 2.5 to 7.5 mg/kg, po administered once daily for 4 weeks and measured after 4 weeks; assay type: organism-based; conditions: in vivo, 1344 h, dose 2.5-7.5 mg/kg, time 8 weeks
# Sequence of 5-hydroxytryptamine receptor 2C (Homo sapiens), P28335 [W324A] (P28335 whole entry W324A): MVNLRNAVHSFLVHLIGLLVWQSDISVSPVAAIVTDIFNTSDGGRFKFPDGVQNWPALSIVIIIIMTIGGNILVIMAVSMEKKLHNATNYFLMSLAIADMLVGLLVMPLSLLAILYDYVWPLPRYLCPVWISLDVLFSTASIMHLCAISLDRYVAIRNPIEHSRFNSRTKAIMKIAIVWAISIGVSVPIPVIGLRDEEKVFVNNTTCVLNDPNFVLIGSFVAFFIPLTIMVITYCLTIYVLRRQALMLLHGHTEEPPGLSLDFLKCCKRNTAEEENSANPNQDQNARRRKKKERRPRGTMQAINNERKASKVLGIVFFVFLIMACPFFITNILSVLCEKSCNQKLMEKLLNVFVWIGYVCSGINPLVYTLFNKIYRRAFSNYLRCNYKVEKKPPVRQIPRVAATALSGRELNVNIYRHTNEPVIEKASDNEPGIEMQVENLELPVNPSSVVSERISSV
# Sequence of 5-hydroxytryptamine receptor 1B (Homo sapiens) (P28222 whole entry): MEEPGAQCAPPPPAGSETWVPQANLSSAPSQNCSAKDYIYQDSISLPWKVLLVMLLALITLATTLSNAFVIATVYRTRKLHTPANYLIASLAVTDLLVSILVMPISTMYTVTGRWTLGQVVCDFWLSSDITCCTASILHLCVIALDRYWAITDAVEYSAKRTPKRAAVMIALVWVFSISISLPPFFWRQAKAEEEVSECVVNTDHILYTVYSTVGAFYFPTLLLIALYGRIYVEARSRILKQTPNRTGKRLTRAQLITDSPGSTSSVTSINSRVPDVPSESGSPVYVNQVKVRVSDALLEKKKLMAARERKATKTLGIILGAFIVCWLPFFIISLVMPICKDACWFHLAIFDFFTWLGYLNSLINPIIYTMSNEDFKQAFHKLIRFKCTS
# Sequence of Sodium-dependent dopamine transporter (Homo sapiens) (Q01959 whole entry): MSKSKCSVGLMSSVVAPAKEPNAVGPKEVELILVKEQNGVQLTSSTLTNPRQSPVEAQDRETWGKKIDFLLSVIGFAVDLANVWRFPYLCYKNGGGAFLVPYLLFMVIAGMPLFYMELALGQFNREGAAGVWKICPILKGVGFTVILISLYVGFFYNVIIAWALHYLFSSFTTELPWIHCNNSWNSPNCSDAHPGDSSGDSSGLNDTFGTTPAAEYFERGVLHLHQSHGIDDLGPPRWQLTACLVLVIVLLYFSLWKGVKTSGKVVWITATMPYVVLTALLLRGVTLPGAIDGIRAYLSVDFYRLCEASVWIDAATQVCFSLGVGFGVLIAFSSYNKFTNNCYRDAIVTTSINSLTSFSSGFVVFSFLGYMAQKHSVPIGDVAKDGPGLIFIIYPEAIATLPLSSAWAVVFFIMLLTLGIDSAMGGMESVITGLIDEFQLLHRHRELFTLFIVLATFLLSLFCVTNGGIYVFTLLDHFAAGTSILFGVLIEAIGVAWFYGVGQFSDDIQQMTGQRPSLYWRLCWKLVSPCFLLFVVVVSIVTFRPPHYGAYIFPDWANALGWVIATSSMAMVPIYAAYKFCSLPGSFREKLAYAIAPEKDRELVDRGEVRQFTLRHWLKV
# Sequence of Histamine H1 receptor (Homo sapiens) (P35367 whole entry): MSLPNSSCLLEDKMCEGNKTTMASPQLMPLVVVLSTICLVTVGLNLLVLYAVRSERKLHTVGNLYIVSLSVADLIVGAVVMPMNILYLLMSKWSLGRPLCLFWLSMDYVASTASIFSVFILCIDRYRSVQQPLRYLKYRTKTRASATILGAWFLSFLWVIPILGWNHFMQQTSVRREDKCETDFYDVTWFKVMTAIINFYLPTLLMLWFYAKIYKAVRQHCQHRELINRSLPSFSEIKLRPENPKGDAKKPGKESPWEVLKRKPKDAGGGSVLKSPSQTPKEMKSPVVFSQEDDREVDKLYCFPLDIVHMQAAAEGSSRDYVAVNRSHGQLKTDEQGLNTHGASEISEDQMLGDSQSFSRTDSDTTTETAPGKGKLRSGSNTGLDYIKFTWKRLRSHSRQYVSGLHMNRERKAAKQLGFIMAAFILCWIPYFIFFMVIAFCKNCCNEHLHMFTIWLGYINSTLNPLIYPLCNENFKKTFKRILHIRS
# Sequence of Beta-2 adrenergic receptor (Homo sapiens) (P07550 whole entry, looked up): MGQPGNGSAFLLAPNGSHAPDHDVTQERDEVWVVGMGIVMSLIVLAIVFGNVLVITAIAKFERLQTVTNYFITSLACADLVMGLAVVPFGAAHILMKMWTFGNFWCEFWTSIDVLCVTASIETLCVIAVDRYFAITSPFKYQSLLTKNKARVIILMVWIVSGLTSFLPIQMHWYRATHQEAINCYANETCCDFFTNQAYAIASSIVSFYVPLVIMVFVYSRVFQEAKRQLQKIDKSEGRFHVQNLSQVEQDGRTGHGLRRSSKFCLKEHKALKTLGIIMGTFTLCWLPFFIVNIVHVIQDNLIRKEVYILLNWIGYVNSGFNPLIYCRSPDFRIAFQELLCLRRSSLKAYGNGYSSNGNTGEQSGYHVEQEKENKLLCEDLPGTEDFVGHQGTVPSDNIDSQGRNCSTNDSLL
# Sequence of 5-hydroxytryptamine receptor 3A (Homo sapiens) (P46098 whole entry): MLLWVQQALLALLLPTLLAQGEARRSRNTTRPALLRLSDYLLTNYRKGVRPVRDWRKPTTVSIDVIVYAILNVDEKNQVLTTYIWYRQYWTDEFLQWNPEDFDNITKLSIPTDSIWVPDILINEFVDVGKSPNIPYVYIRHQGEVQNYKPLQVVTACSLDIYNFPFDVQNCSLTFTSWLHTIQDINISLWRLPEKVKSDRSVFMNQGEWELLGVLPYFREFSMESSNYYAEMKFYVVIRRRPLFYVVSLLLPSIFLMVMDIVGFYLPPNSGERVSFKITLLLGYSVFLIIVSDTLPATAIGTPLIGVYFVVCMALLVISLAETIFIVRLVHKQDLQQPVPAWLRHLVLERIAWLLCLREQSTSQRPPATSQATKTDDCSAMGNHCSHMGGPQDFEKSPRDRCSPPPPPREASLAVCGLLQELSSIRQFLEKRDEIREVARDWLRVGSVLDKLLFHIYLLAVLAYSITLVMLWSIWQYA
# Sequence of 5-hydroxytryptamine receptor 2A (Homo sapiens) (P28223 whole entry): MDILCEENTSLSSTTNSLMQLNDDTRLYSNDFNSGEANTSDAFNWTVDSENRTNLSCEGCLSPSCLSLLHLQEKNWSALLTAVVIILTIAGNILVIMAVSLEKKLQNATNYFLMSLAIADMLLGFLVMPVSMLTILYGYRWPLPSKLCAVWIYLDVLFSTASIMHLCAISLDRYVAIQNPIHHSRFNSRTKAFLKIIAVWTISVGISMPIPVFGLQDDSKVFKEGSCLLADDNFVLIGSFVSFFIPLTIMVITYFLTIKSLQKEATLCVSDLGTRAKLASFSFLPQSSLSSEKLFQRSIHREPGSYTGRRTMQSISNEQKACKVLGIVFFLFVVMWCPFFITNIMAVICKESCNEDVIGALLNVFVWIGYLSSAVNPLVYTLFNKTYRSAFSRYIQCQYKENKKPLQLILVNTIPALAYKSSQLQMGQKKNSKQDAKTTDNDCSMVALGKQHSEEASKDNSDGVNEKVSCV
# Sequence of Vasopressin V1a receptor (Homo sapiens) (P37288 whole entry, looked up): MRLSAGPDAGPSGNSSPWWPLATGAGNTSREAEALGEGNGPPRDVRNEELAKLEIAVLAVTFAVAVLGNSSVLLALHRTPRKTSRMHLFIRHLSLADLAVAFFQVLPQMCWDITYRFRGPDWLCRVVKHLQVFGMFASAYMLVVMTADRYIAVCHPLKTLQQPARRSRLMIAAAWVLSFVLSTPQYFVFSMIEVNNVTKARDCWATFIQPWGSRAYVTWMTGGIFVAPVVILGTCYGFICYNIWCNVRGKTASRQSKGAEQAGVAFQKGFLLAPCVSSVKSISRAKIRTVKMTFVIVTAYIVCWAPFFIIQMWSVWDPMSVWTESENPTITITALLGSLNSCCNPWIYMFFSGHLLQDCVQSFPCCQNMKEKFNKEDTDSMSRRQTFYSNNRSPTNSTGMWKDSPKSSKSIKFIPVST
# Sequence of 5-hydroxytryptamine receptor 2C (Homo sapiens), P28335 [D134A] (P28335 whole entry D134A): as the sequence (P28335 whole entry W324A) above, with D134A, A324W counted along it
compound,measurement,setting,value
c1cc2c(s1)[C@@H]1CNCCN1CC2,Activity,[1],Non-toxic
same,Activity,[2],Non-toxic
same,Activity,[3],Toxic
same,Activity,[4],Non-toxic
same,Activity,[5],Non-toxic
same,Activity,[6],inactive
same,Activity,[7],6.65%
same,Activity,[8],Non-toxic
same,Activity,[9],36.5%
same,Activity,[10],Non-toxic
same,Activity,[11],Non-toxic
same,Activity,[12],6.93%
same,activity at 10 µM,[13],-7.25%
same,Activity,[14],Toxic
same,Activity,[15],Active
same,Activity,[16],inactive
same,Activity,[17],Non-toxic
same,Activity,[18],47.9%
same,Activity,[19],13%
same,Activity,[20],inactive
same,Activity,[21],Non-toxic
same,Activity,[22],Non-toxic
same,Activity,[23],Non-toxic
same,Activity,[24],Non-toxic
same,fraction unbound,[25],0.761
same,Activity,[26],-6.53%
same,Activity,[27],Toxic
same,Activity,[28],-12.2%
same,Activity,[29],Non-toxic
same,EC50,[30],246 nM
same,Activity,[31],Non-toxic

# From ChEMBL document CHEMBL6109139, “Rational Design of the First Dual Agonist at Trace Amine-Associated Receptor 1 and 5-HT2C Receptors Based on Binding Pocket Similarity for the Treatment of Schizophrenia and Alzheimer's Disease-Related Psychosis” (J Med Chem, 2025)
